Laboratory results as given in PMC10970734, “Identification of an Intravenous Injectable NK1 Receptor Antagonist for Use in Traumatic Brain Injury” (International Journal of Molecular Sciences, 2024).

Experiments:
[1] = parameters: method as in PMID 20795794, PMID 18042005; details: slow infusion 20-30 min; cited from earlier work
rodent model of TBI [2] = experiment: Mortality after severe impact-acceleration TBI; type: in vivo, Sprague Dawley rats; details: rat severe TBI, 10 mg/kg 30 min after injury
Description: Injury was induced using an impact-acceleration model of TBI which generates a rodent form of diffuse axonal injury, a major feature of clinical head injury. The level of injury induced in these studies was classified as “severe” [60]. In terms of assessing treatment effects, the study was performed in a blinded manner. […] In line with the “severe” nature of the injury, significant mortality rates were observed within the cohort of injured animals. However, the mortality rates varied between the treatment groups. In the “drug vehicle” group, a mortality rate of 30% was observed, which is in line with the nature of the injury.
Injury was induced in halothane-anesthetized (ProVet) male Sprague Dawley rats (400 ± 20 g) using acceleration-induced impact TBI [29, 93]. This model involves impacting a 10 mm diameter, 3 mm thick stainless steel disc fixed centrally to the exposed skull between the lambda and bregma with an accelerating impactor. The impactor was a 450 g brass weight dropped from a height of 2 m. Earlier studies have shown that the impact acceleration injury produces diffuse axonal injury, oedema, BBB opening, Mg^2+ decline, and moderate-to-severe neurologic deficits. All animals were fed and watered ad libitum before the induction of injury. […] Blood pressure was monitored, both before and after injury, using a femoral arterial line. […]

rodent model of TBI [3] = experiment: Cognitive function after TBI, Barnes maze; type: in vivo, Sprague Dawley rats; details: rat TBI, 10 mg/kg 30 min post-injury, 10 days
Description: Cognitive outcome was assessed using the Barnes maze in order to reduce the potential confounding effects that may be associated with tests such as the Morris water maze. In the Barnes maze, animals were placed under a cover in the centre of an elevated 1.2 m diameter board containing 19 holes around the periphery. One hole contained the entrance to a darkened escape tunnel that was not visible from the surface, relying on the animal to use surrounding visual cues to locate the tunnel. The time, in seconds, for the animal to locate and enter the escape tunnel was recorded. Following pre-training, the effect of injury, and post-injury treatment, on the time taken for the animal to locate the tunnel was measured (Figure 7). […]
Injury was induced in halothane-anesthetized (ProVet) male Sprague Dawley rats (400 ± 20 g) using acceleration-induced impact TBI [29, 93]. […] Blood pressure was monitored, both before and after injury, using a femoral arterial line. […]
Motor and cognitive outcomes in animals (n = 6 per group) were assessed using the rotarod and Barnes maze, respectively, as described in detail elsewhere. […] The rotational speed of the device was increased from 0 to 30 r.p.m. and the duration (in seconds) when the animals either completed the task, fell from the rods, or gripped the rods and spun for two consecutive revolutions rather than walking actively was recorded as the rotarod score. […]

rodent model of TBI [4] = experiment: Motor function after TBI, rotarod test; type: in vivo, Sprague Dawley rats; details: rat TBI, 10 mg/kg 30 min post-injury
Description: The maximum duration of the task was 120 s.
Injury was induced in halothane-anesthetized (ProVet) male Sprague Dawley rats (400 ± 20 g) using acceleration-induced impact TBI [29, 93]. This model involves impacting a 10 mm diameter, 3 mm thick stainless steel disc fixed centrally to the exposed skull between the lambda and bregma with an accelerating impactor. The impactor was a 450 g brass weight dropped from a height of 2 m. […] All animals were fed and watered ad libitum before the induction of injury. During both surgery and the immediate recovery phase, rat rectal temperature was maintained using a thermostatically controlled heating pad. Immediately after injury, animals were manually ventilated until stable respiration was restored, usually in <5 min. After injury, all wounds were sutured. Blood pressure was monitored, both before and after injury, using a femoral arterial line.
Motor and cognitive outcomes in animals (n = 6 per group) were assessed using the rotarod and Barnes maze, respectively, as described in detail elsewhere [64]. The rotarod consists of a motorized rotating assembly of 18 rods (1 mm in diameter) upon which the animals were placed. The rotational speed of the device was increased from 0 to 30 r.p.m. and the duration (in seconds) when the animals either completed the task, fell from the rods, or gripped the rods and spun for two consecutive revolutions rather than walking actively was recorded as the rotarod score. […] After activating the bright lights and aversive auditory stimulus, the latency (in seconds) for the animal to locate and enter the escape tunnel was recorded. All animals were pretrained on both functional outcome tests twice per day over 5 days before injury to establish a normal, uninjured baseline.

NK1R = details: cited from earlier work
[5] = parameters: method as in PMID 20795794; details: parent drug; cited from earlier work

Structure (SMILES): C[C@@H](O[C@H]1OCCN(Cc2nc(O)n(P(=O)(O)O)n2)[C@H]1c1ccc(F)cc1)c1cc(C(F)(F)F)cc(C(F)(F)F)c1 [Fosaprepitant, fosaprepitant]
- Time to conversion to aprepitant after end of infusion [1]: ≤ 30 min

Structure (SMILES): C[C@]12N[C@H](Cc3ccccc31)c1ccccc12 [MK801]
- Mortality rate (rodent model of TBI [2]): 48%
- Cognitive function, Barnes maze time to locate escape tunnel (rodent model of TBI [3]): performance returning close to pre-injury by the end of the study period
- Motor function, rotarod score (rodent model of TBI [4]; 10 days): did not provide any beneficial outcome relative to the drug vehicle
- Recovery of motor function over the 10-day test period (rodent model of TBI [4]; rotarod): approximately 50%

Structure (SMILES): CC(=O)N[C@@H](Cc1c[nH]c2ccccc12)C(=O)O [NAT, N-acetyl-L-tryptophan]
- NK1R binding (NK1R): lack of NK1R binding

Structure (SMILES): C[C@@H](O[C@H]1OCCN(Cc2n[nH]c(=O)[nH]2)[C@H]1c1ccc(F)cc1)c1cc(C(F)(F)F)cc(C(F)(F)F)c1 [aprepitant]
- Aqueous solubility [5]: 0.2 µg/mL
